Assay results from PMC3237002, “Molecular Conversion of Muscarinic Acetylcholine Receptor M5 to Muscarinic Toxin 7 (MT7)-Binding Protein” (Toxins, 2011).
Positions count from the first letter of the chain named.

Experiments:
[1] = target: T1, M5-ELY receptor construct (Homo sapiens, UniProt P08912, K175E/P179L/Q184Y); assay: [3H]NMS dissociation rate, M5-ELY; type: binding
T1 construct: expressed in transfected cells; host or cells: Sf9 cells, recombinant baculovirus
T1 sequence (P08912 1-532 K175E/P179L/Q184Y): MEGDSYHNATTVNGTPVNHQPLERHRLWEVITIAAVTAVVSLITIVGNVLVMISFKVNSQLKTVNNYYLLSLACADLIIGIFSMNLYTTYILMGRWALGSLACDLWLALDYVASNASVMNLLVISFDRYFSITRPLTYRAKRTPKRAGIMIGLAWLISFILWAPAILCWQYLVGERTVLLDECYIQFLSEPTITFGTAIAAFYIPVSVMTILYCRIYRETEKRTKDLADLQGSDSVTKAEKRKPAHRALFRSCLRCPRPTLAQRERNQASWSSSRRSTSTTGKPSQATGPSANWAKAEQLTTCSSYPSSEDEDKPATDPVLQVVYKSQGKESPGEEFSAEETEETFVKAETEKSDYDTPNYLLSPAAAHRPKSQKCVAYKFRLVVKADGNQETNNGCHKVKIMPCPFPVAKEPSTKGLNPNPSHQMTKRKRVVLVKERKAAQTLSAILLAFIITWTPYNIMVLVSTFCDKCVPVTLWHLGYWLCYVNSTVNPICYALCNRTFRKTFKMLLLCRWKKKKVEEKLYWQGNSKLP
Procedure: (§1) The Infected cells from monolayer culture were harvested in phosphate-buffered saline solution, centrifuged 700× g and stored as pellets at −70 °C until use. For binding experiments the cells were resuspended in binding buffer (100 mM NaCl, 20 mM HEPES, 10 mM MgCl2, 1 mM EDTA, pH adjusted to 7.4) and homogenized with an Ultra-Turrax homogenizer. […] Atropine (10 μM) was used to determine nonspecific binding. […] Following this, dissociation was started by addition of 10 μM atropine with or without MT7. Aliquots were removed at regular intervals from 0 to 100 min. In testing the reversibility of MT7 binding, cell homogenates were first incubated with toxin in test tubes for 45 min, thereafter centrifuged 12,000 × g for 30 min and then resuspended in fresh buffer. […] All reactions were terminated by rapid filtration through prewashed GF/B filters followed by five washes with cold buffer containing 180 mM NaCl, 25 mM MgCl2, and 20 mM HEPES, pH 7.4, in a microplate harvester. Radioactivity on filters was determined in a TopCount microplate scintillation counter (PerkinElmer, Waltham, MA).

[2] = target: T2, M5-ELYE receptor construct (Homo sapiens, UniProt P08912, K175E/P179L/Q184Y/V474E); assay: [3H]NMS dissociation rate, M5-ELYE; type: binding
T2 construct: expressed in transfected cells; host or cells: Sf9 cells, recombinant baculovirus
T2 sequence (P08912 1-532 K175E/P179L/Q184Y/V474E): T1 sequence (P08912 1-532 K175E/P179L/Q184Y) with V474E
Procedure: as §1

In the case of `C[N+]1(C)[C@@H]2CC(OC(=O)[C@H](CO)c3ccccc3)C[C@H]1[C@@H]1O[C@@H]12` (some centres unmarked) [[^3H]NMS, [^3H]-N-methylscopolamine], the “[3H]NMS dissociation rate, control” value [1] is reported as 0.113 min⁻¹ and the “[3H]NMS dissociation rate, control” value [2] is reported as 0.147 min⁻¹.
